Results as given in US11497813B2, “Bortezomib conjugates and methods using same” (Frank EBETINO et al., priority 2015, dated 2022).

Test system: mouse MPCs
Assay: Osteoblast differentiation of mouse MPCs (ALP staining)
Format: cell-based
Procedure: FIG. 5A is a scheme of an exemplary synthesis of compound BP-Btz1. FIG. 5B is a series of images of bone slices pre-incubated with 1 μM BP-Btz1, Btz, or bisphosphonate (BP) overnight. Drug solutions were removed and bone slices were washed with PBS extensively. […] (BM) cells from UB^G76V-GFP mice were cultured on bone slices in the presence of M-CSF and RANKL for 9 days. Top images (a): GFP^+ cells were observed under a fluorescence microscope and GFP signal intensity was quantified. Middle images (b): bone slices were fixed and subjected to TRAP staining for osteoclasts (OCs). OC #/slice were counted. Bottom images (c): cells were removed from slices. Toluidine blue staining was performed and pit areas/slice were counted. […] The ALP^+ areas were measured by Image J. *P<0.05 vs. Btz-treated cells.
MPCs are cultured in the OB differentiation medium plus or minus Btz, BT-Btz1 or BT-Btz2 (0.1, 0.5, 1, 5, 10 μM) for 1 to 3 weeks. […] The area of ALP+ and mineralized bone nodule is assessed. The expression levels of OB marker genes (ALP, osteocalcin, Runx2) is measured.
1. […] Following proteasome inhibitor administration, Ub^G76V accumulates and GFP fluorescence is readily apparent. GFP^+ OCs were detected at 4 and 8 hrs after adding Btz to OC cultures, which disappeared at 24 hrs. […] The number and area of OCs and resorption pits are assessed. […]

Q: CC(C)C[C@H](NC(=O)[C@H](Cc1ccccc1)NC(=O)c1cnccn1)B1OCCN(CCOC(=O)NC(P(=O)(O)O)P(=O)(O)O)CCO1 [BP-Btz1] was tested. Which osteoblast differentiation did it give?
A: The osteoblast differentiation was “stimulates osteoblast differentiation”.
